Laboratory results reported in patent publication US11111249B2, “Heteroaryl-pyrazole derivative, and preparation method therefor and medical application thereof” (Jiangsu Hengrui Medicine Co., Ltd., priority 2017, dated 2021).

What was measured:
[1] = target: T1, human TLR8 (Homo sapiens, UniProt Q9NR97); test: Activation of hTLR8 in HEK-Blue hTLR8 stably transfected cells; format: cell-based; settings: OD 620 nm, 6-16 hours
T1 construct: host or cells: HEK-Blue hTLR8 (HEK293-derived) stably transfected cells
T1 sequence (Q9NR97 27-1041): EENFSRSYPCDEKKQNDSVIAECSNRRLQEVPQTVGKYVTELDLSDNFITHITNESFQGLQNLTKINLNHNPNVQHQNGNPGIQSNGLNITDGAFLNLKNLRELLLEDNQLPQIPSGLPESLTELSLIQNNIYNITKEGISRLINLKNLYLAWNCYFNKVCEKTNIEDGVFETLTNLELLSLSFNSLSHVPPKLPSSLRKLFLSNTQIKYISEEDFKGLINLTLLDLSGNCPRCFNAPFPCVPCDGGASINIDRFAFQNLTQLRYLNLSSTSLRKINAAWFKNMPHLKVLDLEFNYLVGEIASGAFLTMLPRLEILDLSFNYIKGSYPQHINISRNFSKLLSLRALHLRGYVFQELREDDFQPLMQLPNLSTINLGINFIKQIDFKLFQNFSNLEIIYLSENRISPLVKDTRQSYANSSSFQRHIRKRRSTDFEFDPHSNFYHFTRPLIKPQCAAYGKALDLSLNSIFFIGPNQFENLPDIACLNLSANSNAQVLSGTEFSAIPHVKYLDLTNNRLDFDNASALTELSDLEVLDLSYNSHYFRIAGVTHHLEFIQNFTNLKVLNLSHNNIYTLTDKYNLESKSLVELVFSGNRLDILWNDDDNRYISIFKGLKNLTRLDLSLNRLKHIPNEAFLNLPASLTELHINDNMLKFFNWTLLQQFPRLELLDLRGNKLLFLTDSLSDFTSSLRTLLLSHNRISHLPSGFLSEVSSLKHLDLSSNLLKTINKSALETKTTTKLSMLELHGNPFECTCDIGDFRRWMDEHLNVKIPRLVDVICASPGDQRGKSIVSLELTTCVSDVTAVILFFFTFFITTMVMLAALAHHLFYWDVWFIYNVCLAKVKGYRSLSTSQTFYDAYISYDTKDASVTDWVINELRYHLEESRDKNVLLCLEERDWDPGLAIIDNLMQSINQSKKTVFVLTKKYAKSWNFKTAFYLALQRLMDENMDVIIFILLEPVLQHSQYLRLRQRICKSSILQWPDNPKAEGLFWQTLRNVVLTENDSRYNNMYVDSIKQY
Experimental: (§1) The activation effect of the compound of the present application on the hTLR7 protein expressed in HEK-Blue™ hTLR7 stably transfected cells and hTLR8 protein expressed in HEK-Blue™ hTLR8 stably transfected cells were determined by the following experimental method:
(§2) The HEK-Blue assay medium was configured, HEK-Blue test dry powder was taken and 50 mL deendotoxin water were added to dissolve, then the resulting mixture was placed into the 37° C. incubator, and then filtered aseptically 10 minutes later. […]
(§3) The above-prepared compound was diluted 20-fold with a medium, and then 20 μL of the diluted compound were added to each well. HEK-Blue™ hTLR7 cells and HEK-Blue™ hTLR8 cells were taken separately, and the supernatant was removed first, then 2-5 mL pre-warmed PBS was added, placed in an incubator for 1-2 minutes, and the cells were gently pipetted, stained with trypan blue and counted. […]
(§4) The microplate reader reads at a wavelength of 620 nm. The corresponding OD value was obtained, and the EC50 value of the drug was calculated by Graphpad Prism. The activation effect of the compound of the present application and the control compound (prepared by the method of embodiment 21 of WO2016023511) on human TLR7 and TLR8 were determined by the above test, and the measured EC50 values were as shown in Table 1.

[2] = target: T2, human TLR7 (Homo sapiens, UniProt Q9NYK1); test: Activation of hTLR7 in HEK-Blue hTLR7 stably transfected cells; format: cell-based; settings: OD 620 nm, 6-16 hours
T2 construct: host or cells: HEK-Blue hTLR7 (HEK293-derived) stably transfected cells
T2 sequence (Q9NYK1 27-1049): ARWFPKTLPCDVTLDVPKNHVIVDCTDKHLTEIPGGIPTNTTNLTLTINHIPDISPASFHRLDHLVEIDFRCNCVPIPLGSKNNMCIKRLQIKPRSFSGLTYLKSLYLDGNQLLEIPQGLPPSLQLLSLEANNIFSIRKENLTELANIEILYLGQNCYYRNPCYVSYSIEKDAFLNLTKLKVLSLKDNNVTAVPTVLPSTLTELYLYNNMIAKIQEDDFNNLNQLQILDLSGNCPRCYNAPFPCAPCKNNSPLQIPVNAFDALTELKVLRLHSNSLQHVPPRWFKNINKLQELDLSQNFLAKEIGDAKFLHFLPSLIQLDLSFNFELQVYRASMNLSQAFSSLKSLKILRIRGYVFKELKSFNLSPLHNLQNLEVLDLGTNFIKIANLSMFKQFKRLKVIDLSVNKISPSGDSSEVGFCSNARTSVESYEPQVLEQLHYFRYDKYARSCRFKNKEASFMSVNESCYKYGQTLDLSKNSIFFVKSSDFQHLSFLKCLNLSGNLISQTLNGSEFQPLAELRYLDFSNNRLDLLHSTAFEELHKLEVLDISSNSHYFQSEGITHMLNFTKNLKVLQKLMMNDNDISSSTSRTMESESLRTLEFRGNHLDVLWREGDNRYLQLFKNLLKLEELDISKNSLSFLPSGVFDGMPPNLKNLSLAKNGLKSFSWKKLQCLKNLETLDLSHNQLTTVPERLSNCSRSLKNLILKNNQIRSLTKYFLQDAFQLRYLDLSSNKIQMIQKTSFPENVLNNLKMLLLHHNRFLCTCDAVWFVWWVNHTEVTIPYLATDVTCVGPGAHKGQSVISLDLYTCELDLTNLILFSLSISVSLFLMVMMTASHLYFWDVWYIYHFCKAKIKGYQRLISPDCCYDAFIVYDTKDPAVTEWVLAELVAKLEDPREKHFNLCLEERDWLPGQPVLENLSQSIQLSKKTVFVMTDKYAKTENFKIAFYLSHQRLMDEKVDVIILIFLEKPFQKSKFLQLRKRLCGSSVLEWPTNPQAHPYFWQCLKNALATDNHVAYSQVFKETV
Experimental: as §1, §2, §3, §4

Row | Compound | EC50 [1] [nM] | EC50 [2] [nM]
1 | CCCCOc1nc(N)c2[nH]nc(Cc3ccc(CN4CCCC4)cc3)c2n1 [Embodiment 1, 5-Butoxy-3-(4-(pyrrolidin-1-ylmethyl)benzyl)-1H-pyrazolo[4,3-d]pyrimidin-7-amine] | 5220 | 53
2 | CCCCOc1nc(N)c2[nH]cc(Cc3ccc(CN4CCCC4)cc3)c2n1 [Embodiment 21 of WO2016023511] | 12500 | 243
